Where a chain is given by its changes, count along the chain named.
Columns and labels:
Assay in all cases: inside-out patch clamp, HEK293
Assay type in all cases: biochemical
[1] = target: T1, Kir4.1 (Rattus norvegicus, UniProt P49655); details: read-out: % inhibition at 10 μM
T1 sequence (P49655 1-379): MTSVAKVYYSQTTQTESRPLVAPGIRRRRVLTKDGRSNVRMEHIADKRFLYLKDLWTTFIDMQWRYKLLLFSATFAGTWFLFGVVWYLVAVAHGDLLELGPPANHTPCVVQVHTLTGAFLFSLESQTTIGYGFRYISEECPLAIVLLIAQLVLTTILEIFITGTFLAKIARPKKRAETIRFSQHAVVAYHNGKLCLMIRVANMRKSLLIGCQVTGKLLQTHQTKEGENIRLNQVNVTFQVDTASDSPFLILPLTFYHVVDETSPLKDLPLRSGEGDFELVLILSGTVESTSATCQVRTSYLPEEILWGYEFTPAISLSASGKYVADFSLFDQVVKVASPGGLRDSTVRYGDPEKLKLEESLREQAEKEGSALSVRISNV

[2] = target: T1, Kir4.1
[3] = target: T2, Kir4.1 (Rattus norvegicus, UniProt P49655, T127A); details: read-out: % inhibition at 10 μM
T2 sequence (P49655 1-379 T127A): T1 sequence (P49655 1-379) with T127A

[4] = target: T3, Kir4.1 (Rattus norvegicus, UniProt P49655, E158N); details: read-out: % inhibition at 10 μM
T3 sequence (P49655 1-379 E158N): T1 sequence (P49655 1-379) with E158N

[5] = target: T4, Kir4.1 (Rattus norvegicus, UniProt P49655, T128A); details: read-out: % inhibition at 10 μM
T4 sequence (P49655 1-379 T128A): T1 sequence (P49655 1-379) with T128A

- inhibition at 10 µM [1]: 88.3 ± 1.5%
- IC50 [2]: 1800 ± 300 nM
- inhibition at 10 µM [3]: 89.7 ± 1.1%
- inhibition at 10 µM [4]: 79.8 ± 2.2%
- inhibition at 10 µM [5]: 66.1 ± 1.1%
SMILES: CCN(CC)CCCC(C)Nc1c2ccc(Cl)cc2nc2ccc(OC)cc12 (centres unmarked) [quinacrine]

— paper PMC5502112 (Brain research, 2017)
